# From patent US8299088B2, “Compositions and methods for treating cancer” (priority 2003, dated 2012)
# Read-outs that look alike come from different tables or passages of the source.
# Assays:
# H460 cells [1] = assay: Intracellular activation of hypoxia activated prodrugs (drug metabolism in medium of cells, LC-MS/UV 370 nm); conditions: for Example 12 compound UV peak area (370 nm): drug only (no cells), ~30 μM, 3 hours 37° C
# H460 cells [2] = system: H460 cells
# H460 cells [3] = assay: Clonogenic toxicity assay; format: cell-based, human; conditions: 2 hr compound exposure; for IC90: Homo sapiens, NCI-H460, normoxic (air) and anoxic, no significant difference
# Protocol: The clonogenic assay measures the reproductive ability of a surviving cell by specifically determining if a cell can grow to form a colony of greater than 50 cells. Briefly, cells are treated with a drug for an acute exposure and then the drug is removed. Cells are trypinized to form single cell suspensions and known numbers of cells are plated and incubated until colonies form. Colonies are counted and the cell survival is calculated based on number of colonies formed in the treated groups compared to number of colonies formed in the untreated controls. […] The terms aerobic and normoxic are used interchangeably.
# Exponentially growing human H460 cells (obtained from ATCC) were seeded into 60 mm notched glass plates between 2.5 and 5×10^5 cells per plate and grown in RPMI medium supplemented with 10% fetal bovine serum for 2 days prior to initiating treatment. On the day of the experiment drug stocks of known concentrations were prepared in complete medium and 2 ml added to each plate. Glass plates were sealed into airtight aluminum vessels equipped with a valve to control gas flow. To achieve complete equilibration between the gas phase and the liquid phase a series of gas exchanges were performed on each vessel while shaking. Vessels were evacuated and gassed with either a certified anoxic gas mixture (95% nitrogen and 5% carbon dioxide) or with aerobic gas mixture (95% air and 5% carbon dioxide). Specifically, each vessel was evacuated to minus 26 inches of mercury and held for 15 seconds before gassing at 20 psi and again holding for 15 seconds. After a series of five evacuations and gassings the vessels were held an additional 5 minutes before a final evacuation and refilling of each vessel with the desired gas mixture at 0.5 psi above atmospheric pressure. Cells were incubated for 2 hours at 37° C. […] The exact concentration of each stock was determined by counting with a Coulter Z2 particle counter. […] Colonies of greater than 50 cells were counted and the surviving fraction determined.
smiles,measurement,setting,value
CCC1(O)C(=O)OCc2c1cc1n(c2=O)Cc2cc3cc(OCc4cnc([N+](=O)[O-])n4C)ccc3cc2-1 (stereo not drawn) [Example 12],selectivity of release mechanism (anoxic versus hypoxic),H460 cells [1]; in words,highly selective
same,degree of release (conversion to 10 hydroxy-camptothecin),"H460 cells [1]; trial 4: anoxic, with H460 cells",over half
same,release of 10 hydroxycamptothecin,H460 cells [2],no detectable release
same,10-Hydroxy Campothecin UV peak area (370 nm),"H460 cells [2]; 3 h, 30 uM",~0
COc1cccc2c1C(=O)c1c(O)c3c(c(O)c1C2=O)C[C@@](O)(C(C)=O)C[C@@H]3O[C@H]1C[C@H](N)[C@H](O)[C@H](C)O1 [daunorubicin],toxicity difference between normoxic (air) and anoxic conditions,H460 cells [3],no significant toxicity difference
same,IC90,H460 cells [3]; read-out: IC 90 (90% inhibition of colony formation),500 nM
same,IC90,H460 cells [3]; read-out: IC 90 data ranges over multiple experiments,200 to 1000 nM
"CC[C@@]1(O)C(=O)OCc2c1cc1n(c2=O)Cc2cc3cc(O)ccc3nc2-1 [10-OH Camptothecin, 10-Hydroxycamptothecin, reference compound]",Example 12 compound UV peak area (370 nm),H460 cells [1]; aerobic,0
same,Example 12 compound UV peak area (370 nm),H460 cells [1]; anoxic,0
